Experimental data taken from US20260374818A1, “CATIONIC PEPTIDES WITH BROAD SPECTRUM ACTIVITY” (priority 2023, published 2026).
In brackets after ≈: the same amount, converted by molar mass. Where a SMILES comes first, the peptide text is derived from it. [ ]: non-standard residue; d: D form.

Tests used:
MRSA USA300 biofilms = experiment: Biofilm inhibition by >95% pure peptides (crystal violet), MRSA; type: cell-based, methicillin resistant Staphylococcus aureus; details: for minimum inhibitory concentration of peptide that inhibited at least 90% of biofilm growth (MBIC90): MRSA USA300 biofilms, >95% pure peptides, 10% TSB + 0.1% glucose; for IC50: MRSA, 24 hours
P. aeruginosa PAO1 [1] = experiment: MIC (broth microdilution) of peptides, P. aeruginosa; type: cell-based, Pseudomonas aeruginosa; details: mode of three biological replicates
Procedure: (§1) Minimal inhibitory concentration (MIC) against planktonic bacteria: The MIC of the synthetic peptides was determined in Mueller-Hinton broth (MHB) using the broth microdilution method described previously [Wiegand, I., Hilpert, K., & Hancock, R. E. (2008). Agar and broth dilution methods to determine the minimal inhibitory concentration (MIC) of antimicrobial substances. Nature Protocols, 3(2), 163-175]. Briefly, 10 μl of a 10× concentrated peptide solution was placed in the bottom of a well in a 96-well polypropylene round bottom plate (Corning Inc.). A bacterial suspension of ~5×10^5 CFU/ml was prepared from an overnight culture and 90 μl of this was added to each well. […] Bacteria tested included P. aeruginosa PAO1, MRSA USA300 LAC, Staphylococcus haemolyticus, Staphylococcus epidermidis, Klebsiella pneumoniae and Streptococcus salivarius.
(§2) Finally, the AB103-D derivatives that were the least aggregation prone and which produced the lowest toxic effects in vivo were evaluated for their direct antibacterial activity towards several pathogens of clinical relevance using a standard minimum inhibitory concentration (MIC) assay [Wiegand, I., Hilpert, K., & Hancock, R. E. (2008). Agar and broth dilution methods to determine the minimal inhibitory concentration (MIC) of antimicrobial substances. Nature Protocols, 3(2), 163-175]. Specifically, peptides AB110-D, AB111-D, AB114-D and AB115-D were tested against P. aeruginosa PAO1, MRSA USA 300, Staphylococcus haemolyticus, Staphylococcus epidermidis, Klebsiella pneumoniae and Streptococcus salivarius and compared against the antibacterial activity of DJK-5 and AB103-D (Table 7). Overall, the antibacterial potency of all of the AB103-D derivatives was stronger than that seen for DJK-5, particularly in the case of the Gram-negative pathogens P. aeruginosa and K. pneumoniae. […]

MRSA USA 300 = experiment: MIC (broth microdilution) of peptides, MRSA; type: cell-based, methicillin resistant Staphylococcus aureus; details: MRSA USA300; mode of three biological replicates
Procedure: as §1, §2

[2] = test system: Staphylococcus epidermidis; experiment: MIC (broth microdilution) of peptides, S. epidermidis; type: cell-based; details: mode of three biological replicates
Procedure: as §1, §2

Streptococcus salivarius = experiment: MIC (broth microdilution) of peptides, S. salivarius; type: cell-based; details: mode of three biological replicates
Procedure: as §1, §2

[3] = test system: Enterococcus faecium #2-1; experiment: Biofilm inhibition (at least 80%), E. faecium; type: cell-based; details: E. faecium #2-1; n = 3; TSB + 1% glucose; 48 hours; crystal violet
MRSA USA300 [4] = experiment: Biofilm inhibition (at least 80%), MRSA; type: cell-based, methicillin resistant Staphylococcus aureus; details: n = 4, 10% TSB + 0.1% glucose, 18-24 hours, crystal violet
[5] = test system: Klebsiella pneumonia KPLN649; experiment: Biofilm inhibition (at least 80%), K. pneumonia; type: cell-based; details: K. pneumoniae KPLN649; n = 3; BM2 minimal media; 48 hours; crystal violet
[6] = test system: Acinetobacter baumannii Ab5075; experiment: Biofilm inhibition (at least 80%), A. baumannii; type: cell-based; details: n = 4, BM2 minimal media, 18-24 hours, crystal violet
P. aeruginosa PAO1 [7] = experiment: Biofilm inhibition (at least 80%), P. aeruginosa; type: cell-based, Pseudomonas aeruginosa; details: n = 4, BM2 minimal media, 18-24 hours, crystal violet
MRSA USA300 [8] = experiment: Murine sinusitis model, MRSA; type: in vivo, mouse; methicillin resistant Staphylococcus aureus
Text: FIGS. 15A-15I show peptides AB101-D, AB102-D and AB103-D compared to DJK5 in a murine sinusitis model of bacterial infections. MRSA USA300, nasal cavity (FIG. 15A) P. aeruginosa LESB58 (FIG. 15B and FIG. 15C, nasal cavity); MRSA USA300, lung tissue (FIG. 15D) P. aeruginosa LESB58 (FIG. 15E and FIG. 15F, lung tissue); and MRSA USA300, weight change (FIG. 15G) P. aeruginosa LESB58 (FIG. 15H and FIG. 15I, weight change).
A murine sinusitis model of bacterial infections in the nasal cavity of mice [Alford et al. (2021). Murine model of sinusitis infection for screening antimicrobial and immunomodulatory therapies. Frontiers in Cellular and Infection Microbiology., 11, 621081] was used to determine the efficacy of D-amino acid peptides AB101-D, AB102-D and AB103-D compared to DJK5. […]. Treatment was applied either as dropwise administration of a peptide solution (20 μl) to the infected naris of a mouse (FIGS. 15A, 15B, 15D, 15E, 15G, 15H) or peptide was delivered using a Respimat® inhaler device (FIGS. 15C, 15F, 15I). Mice were monitored and weighed once daily for up to three days then euthanized prior to collection of nasal lavage fluid and lung tissue for bacterial enumeration. The limit of detection is shown by the dotted line at log CFU=2. […] Accordingly, the results indicated enhanced efficacy of D-amino acid peptides AB101-D, AB102-D and AB103-D compared to DJK5 in this murine model.

[9] = test system: P. aeruginosa PAO1 biofilms; details: for minimum inhibitory concentration of peptide that inhibited at least 90% of biofilm growth (MBIC90): P. aeruginosa PAO1 biofilms, >95% pure peptides, BM2 minimal media; for minimum inhibitory concentration of peptide that inhibited at least 90% of biofilm growth (MBIC90) / IC50: crystal violet; for IC50: read-out: Biofilm Inhibition IC50, PAO1, 24 hours
PAO1 preformed biofilms = details: for IC50: read-out: Biofilm Eradication IC50, PAO1, 24-hr preformed biofilms treated overnight, TTC

SMILES	minimum inhibitory concentration of peptide that inhibited at least 90% of biofilm growth (MBIC90) (MRSA USA300 biofilms) [µM]	IC50 (MRSA USA300 biofilms) [nM]	MIC (P. aeruginosa PAO1 [1]) [µg/mL]	MIC (MRSA USA 300) [µg/mL]	MIC [2] [µg/mL]	MIC (Streptococcus salivarius) [µg/mL]	Peptide/Antibiotic Concentration where at least 80% of biofilm growth was inhibited [3] [µg/mL]	Peptide/Antibiotic Concentration where at least 80% of biofilm growth was inhibited (MRSA USA300 [4]) [µg/mL]	Peptide/Antibiotic Concentration where at least 80% of biofilm growth was inhibited [5] [µg/mL]	Peptide/Antibiotic Concentration where at least 80% of biofilm growth was inhibited [6] [µg/mL]	Peptide/Antibiotic Concentration where at least 80% of biofilm growth was inhibited (P. aeruginosa PAO1 [7]) [µg/mL]	Bacteria in nasal cavity and lungs (MRSA USA300 [8]; MRSA USA300, 0.1 mg dose, compared to DJK5)	Biofilm inhibition activity compared to DJK5 ([9]; P. aeruginosa) [fold]	minimum inhibitory concentration of peptide that inhibited at least 90% of biofilm growth (MBIC90) [9] [µM]	IC50 [9] [nM]	Enhanced antibiofilm eradication activity (PAO1 preformed biofilms; P. aeruginosa, compared with DJK5) [fold]	IC50 (PAO1 preformed biofilms) [nM]	Weight loss (MRSA USA300 [8]; MRSA USA300 infected mice)
CC[C@@H](C)[C@@H](NC(=O)[C@@H](C)NC(=O)[C@@H](CCCNC(=N)N)NC(=O)[C@@H](Cc1c[nH]c2ccccc12)NC(=O)[C@@H](CCC(N)=O)NC(=O)[C@H](NC(=O)[C@@H](CCCNC(=N)N)NC(=O)[C@H](NC(=O)[C@H](NC(=O)[C@@H](CCCNC(=N)N)NC(=O)[C@H](NC(=O)[C@H](N)CCCNC(=N)N)C(C)C)C(C)C)[C@H](C)CC)C(C)C)C(N)=O [AB103-D, rvrvirvqwrai-NH2] (H-[dR][dV][dR][dV][dI][dR][dV][dQ][dW][dR][dA][dI]-NH2)	1	340	2 (≈ 1.29 µM)	0.8 (≈ 0.516 µM)	0.8 (≈ 0.516 µM)	0.8 (≈ 0.516 µM)	1	0.5	2	1	2	reduced the amount of bacteria in the nasal cavity and lungs of mice much more than DJK5 treatment	≥ 4	8	1900	> 2	1700	
CC[C@@H](C)[C@@H](NC(=O)[C@@H](C)NC(=O)[C@@H](CCCNC(=N)N)NC(=O)[C@@H](Cc1c[nH]c2ccccc12)NC(=O)[C@@H](CCC(N)=O)NC(=O)[C@H](N)C(C)C)C(=O)N[C@H](CCCNC(=N)N)C(=O)N[C@@H](C(=O)N[C@H](CCCNC(=N)N)C(=O)N[C@@H](C(=O)N[C@@H](C(=O)N[C@H](CCCNC(=N)N)C(N)=O)[C@H](C)CC)C(C)C)C(C)C [DJK5, vqwrairvrvir-NH2] (H-[dV][dQ][dW][dR][dA][dI][dR][dV][dR][dV][dI][dR]-NH2)	0.5	350	6 (≈ 3.87 µM)	0.8 (≈ 0.516 µM)	0.8 (≈ 0.516 µM)	0.8 (≈ 0.516 µM)	1	1	8	2	8			16	7400		3800	did not prevent weight loss
